Data from ChEMBL document CHEMBL3137667, “[Drug-induced liver injury; fourteenth updated edition of the bibliographic database of liver injuries and related drugs]” (Gastroenterol Clin Biol, 2004).

Tests used:
[1] = human
[2] = human; remark: listed apart in the source
[3] = human; remark: listed apart in the source
[4] = human; remark: listed apart in the source
[5] = human; remark: listed apart in the source
[6] = human; remark: listed apart in the source
[7] = Proposed mechanism(s) of liver damage. [column 'MEC' in source]; details: human
[8] = human; remark: listed apart in the source
[9] = human; remark: listed apart in the source
[10] = human; remark: listed apart in the source
[11] = human, serum
[12] = Highest frequency of acute liver toxicity observed during clinical trials, expressed as a percentage. [column '% AIGUE' in source]; details: human
[13] = human, serum, 4383 h
[14] = Highest frequency of moderate liver toxicity observed during clinical trials, expressed as a percentage. [column '% BIOL' in source]; details: human
[15] = human, serum; remark: listed apart in the source
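Throughout, for Hepatotoxicity (association with vascular disease): count of indexed literature references reporting vascular liver injury in humans, e.g. peliosis hepatitis, hepatic veno-occlusive disease or Budd-Chiari syndrome.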
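Throughout, for Hepatotoxicity (benign tumour): value is a count of indexed literature references citing a benign tumour confirmed by histopathology.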
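Throughout, for Hepatotoxicity (choleostasis): human cholestatic liver injury, shown by histopathology or by peak ALT or AST elevation over alkaline phosphatase ratio below 2, value counts indexed literature reports.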
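Throughout, for Hepatotoxicity (chronic liver disease): chronic liver injury confirmed by histopathology or persistently raised serum aminotransferase activity beyond 6 months, value given as the count of indexed literature references.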
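Throughout, for Hepatotoxicity (cirrhosis): value is a count of indexed literature references reporting cirrhosis confirmed by histopathology.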
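Throughout, for Hepatotoxicity (cytolytic): human cytolytic liver injury, shown by histopathology or by a ratio above 5 of peak ALT or AST elevation to alkaline phosphatase elevation, value counts indexed references.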
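Throughout, for Hepatotoxicity (granulomatous hepatitis): value is a count of indexed literature references reporting granulomatous liver disease confirmed by histopathology.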
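Throughout, for Hepatotoxicity (malignant tumour): malignant tumour confirmed by histopathology, value gives the count of indexed literature references reporting it.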
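Throughout, for Hepatotoxicity (severe hepatitis): human clinical data: severe hepatitis, meaning potentially life-threatening liver failure or clinically observed cases, the value counts how many indexed literature references report it.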
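Throughout, for Hepatotoxicity (steatosis): steatosis confirmed by histopathology, value is the count of indexed references.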

C=CCC1(C(C)C#CCC)C(=O)N=C(O)N(C)C1=O (stereo not given) [METHOHEXITAL]
Hepatotoxicity (severe hepatitis) [1]: 0 | Hepatotoxicity (malignant tumour) [2]: 0 | Hepatotoxicity (steatosis) [3]: 0 | Hepatotoxicity (granulomatous hepatitis) [4]: 0 | Hepatotoxicity (choleostasis) [5]: 0 | Hepatotoxicity (association with vascular disease) [6]: 0 | Hepatotoxicity (mechanism) [7]: Dose-dependant | Hepatotoxicity (cytolytic) [8]: 0 | Hepatotoxicity (cirrhosis) [9]: 0 | Hepatotoxicity (benign tumour) [10]: 0 | Hepatotoxicity (acute) [11]: 0 | Hepatotoxicity (acute) [12]: 0% | Hepatotoxicity (chronic liver disease) [13]: 0 | Hepatotoxicity (moderate) [14]: 0% | Hepatotoxicity (moderate) [15]: 1

CCC1(CC)C(=O)NCC(C)C1=O (stereo not given) [METHYPRYLON]
Hepatotoxicity (severe hepatitis) [1]: 0 | Hepatotoxicity (malignant tumour) [2]: 0 | Hepatotoxicity (steatosis) [3]: 0 | Hepatotoxicity (granulomatous hepatitis) [4]: 0 | Hepatotoxicity (choleostasis) [5]: 1 | Hepatotoxicity (association with vascular disease) [6]: 0 | Hepatotoxicity (mechanism) [7]: Dose-dependant | Hepatotoxicity (cytolytic) [8]: 1 | Hepatotoxicity (cirrhosis) [9]: 0 | Hepatotoxicity (benign tumour) [10]: 0 | Hepatotoxicity (acute) [11]: 1 | Hepatotoxicity (acute) [12]: 0% | Hepatotoxicity (chronic liver disease) [13]: 0 | Hepatotoxicity (moderate) [14]: 0% | Hepatotoxicity (moderate) [15]: 1

O=C1CN(/N=C/c2ccc([N+](=O)[O-])o2)C(=O)N1CO [NIFURTOINOL]
Hepatotoxicity (severe hepatitis) [1]: 0 | Hepatotoxicity (malignant tumour) [2]: 0 | Hepatotoxicity (steatosis) [3]: 0 | Hepatotoxicity (granulomatous hepatitis) [4]: 0 | Hepatotoxicity (choleostasis) [5]: 0 | Hepatotoxicity (association with vascular disease) [6]: 0 | Hepatotoxicity (mechanism) [7]: Allergic | Hepatotoxicity (cytolytic) [8]: 0 | Hepatotoxicity (cirrhosis) [9]: 0 | Hepatotoxicity (benign tumour) [10]: 0 | Hepatotoxicity (acute) [11]: 0 | Hepatotoxicity (acute) [12]: 0% | Hepatotoxicity (chronic liver disease) [13]: 2 | Hepatotoxicity (moderate) [14]: 0% | Hepatotoxicity (moderate) [15]: 0

CO[C@@H]1[C@@H](OC(N)=O)[C@@H](O)[C@H](Oc2ccc3c(O)c(NC(=O)c4ccc(O)c(CC=C(C)C)c4)c(=O)oc3c2C)OC1(C)C [NOVOBIOCIN]
Hepatotoxicity (severe hepatitis) [1]: 2 | Hepatotoxicity (malignant tumour) [2]: 0 | Hepatotoxicity (steatosis) [3]: 0 | Hepatotoxicity (granulomatous hepatitis) [4]: 0 | Hepatotoxicity (choleostasis) [5]: 3 | Hepatotoxicity (association with vascular disease) [6]: 0 | Hepatotoxicity (mechanism) [7]: Allergic, Dose-dependant | Hepatotoxicity (cytolytic) [8]: 2 | Hepatotoxicity (cirrhosis) [9]: 0 | Hepatotoxicity (benign tumour) [10]: 0 | Hepatotoxicity (acute) [11]: 5 | Hepatotoxicity (acute) [12]: 0% | Hepatotoxicity (chronic liver disease) [13]: 0 | Hepatotoxicity (moderate) [14]: 40% | Hepatotoxicity (moderate) [15]: 2

Nc1nc2[nH]cc(CCc3ccc(C(=O)N[C@@H](CCC(=O)O)C(=O)O)cc3)c2c(=O)[nH]1 [PEMETREXED]
Hepatotoxicity (severe hepatitis) [1]: 0 | Hepatotoxicity (malignant tumour) [2]: 0 | Hepatotoxicity (steatosis) [3]: 0 | Hepatotoxicity (granulomatous hepatitis) [4]: 0 | Hepatotoxicity (choleostasis) [5]: 0 | Hepatotoxicity (association with vascular disease) [6]: 0 | Hepatotoxicity (mechanism) [7]: Dose-dependant | Hepatotoxicity (cytolytic) [8]: 0 | Hepatotoxicity (cirrhosis) [9]: 0 | Hepatotoxicity (benign tumour) [10]: 0 | Hepatotoxicity (acute) [11]: 0 | Hepatotoxicity (acute) [12]: 0% | Hepatotoxicity (chronic liver disease) [13]: 0 | Hepatotoxicity (moderate) [14]: 100% | Hepatotoxicity (moderate) [15]: 1

COc1ccc(OC)c(Cc2cnc3nc(N)nc(N)c3c2C)c1 [PIRITREXIM]
Hepatotoxicity (severe hepatitis) [1]: 0 | Hepatotoxicity (malignant tumour) [2]: 0 | Hepatotoxicity (steatosis) [3]: 0 | Hepatotoxicity (granulomatous hepatitis) [4]: 0 | Hepatotoxicity (choleostasis) [5]: 0 | Hepatotoxicity (association with vascular disease) [6]: 0 | Hepatotoxicity (mechanism) [7]: Dose-dependant | Hepatotoxicity (cytolytic) [8]: 0 | Hepatotoxicity (cirrhosis) [9]: 0 | Hepatotoxicity (benign tumour) [10]: 0 | Hepatotoxicity (acute) [11]: 0 | Hepatotoxicity (acute) [12]: 0% | Hepatotoxicity (chronic liver disease) [13]: 0 | Hepatotoxicity (moderate) [14]: 12.1% | Hepatotoxicity (moderate) [15]: 7

CC(Cc1ccccc1)NCCC(c1ccccc1)c1ccccc1 (stereo not given) [PRENYLAMINE]
Hepatotoxicity (severe hepatitis) [1]: 0 | Hepatotoxicity (malignant tumour) [2]: 0 | Hepatotoxicity (steatosis) [3]: 0 | Hepatotoxicity (granulomatous hepatitis) [4]: 0 | Hepatotoxicity (choleostasis) [5]: 0 | Hepatotoxicity (association with vascular disease) [6]: 0 | Hepatotoxicity (mechanism) [7]: Dose-dependant | Hepatotoxicity (cytolytic) [8]: 0 | Hepatotoxicity (cirrhosis) [9]: 0 | Hepatotoxicity (benign tumour) [10]: 0 | Hepatotoxicity (acute) [11]: 0 | Hepatotoxicity (acute) [12]: 0% | Hepatotoxicity (chronic liver disease) [13]: 0 | Hepatotoxicity (moderate) [14]: 7.7% | Hepatotoxicity (moderate) [15]: 1

[H]/N=C(/N)N[C@H]1[C@H](O)[C@@H](O)[C@H](O[C@@H]2O[C@@H](C)[C@](O)(C=O)[C@H]2O[C@@H]2O[C@@H](CO)[C@H](O)[C@@H](O)[C@@H]2NC)[C@@H](N/C(N)=N\[H])[C@@H]1O [STREPTOMYCIN]
Hepatotoxicity (severe hepatitis) ([1]; Liver): 0 | Hepatotoxicity (malignant tumour) [2]: 0 | Hepatotoxicity (steatosis) [3]: 0 | Hepatotoxicity (granulomatous hepatitis) ([4]; Liver): 0 | Hepatotoxicity (choleostasis) ([5]; Liver): 1 | Hepatotoxicity (association with vascular disease) [6]: 0 | Hepatotoxicity (mechanism) ([7]; Liver): Allergic | Hepatotoxicity (cytolytic) ([8]; Liver): 2 | Hepatotoxicity (cirrhosis) [9]: 0 | Hepatotoxicity (benign tumour) [10]: 0 | Hepatotoxicity (acute) [11]: 4 | Hepatotoxicity (acute) ([12]; Liver): 0% | Hepatotoxicity (chronic liver disease) [13]: 0 | Hepatotoxicity (moderate) ([14]; Liver): 0% | Hepatotoxicity (moderate) [15]: 1

CC1(C)S[C@@H]2[C@H](NC(=O)C(c3ccccc3)S(=O)(=O)O)C(=O)N2[C@H]1C(=O)O (stereo not given in full) [SULBENICILLIN]
Hepatotoxicity (severe hepatitis) [1]: 0 | Hepatotoxicity (malignant tumour) [2]: 0 | Hepatotoxicity (steatosis) [3]: 0 | Hepatotoxicity (granulomatous hepatitis) [4]: 0 | Hepatotoxicity (choleostasis) [5]: 2 | Hepatotoxicity (association with vascular disease) [6]: 0 | Hepatotoxicity (mechanism) [7]: Allergic | Hepatotoxicity (cytolytic) [8]: 0 | Hepatotoxicity (cirrhosis) [9]: 0 | Hepatotoxicity (benign tumour) [10]: 0 | Hepatotoxicity (acute) [11]: 3 | Hepatotoxicity (acute) [12]: 1% | Hepatotoxicity (chronic liver disease) [13]: 0 | Hepatotoxicity (moderate) [14]: 6.7% | Hepatotoxicity (moderate) [15]: 3

CNCCNc1ccc2c3c(nn2CCNCCO)-c2c(O)ccc(O)c2C(=O)c13 [TELOXANTRONE]
Hepatotoxicity (severe hepatitis) [1]: 0 | Hepatotoxicity (malignant tumour) [2]: 0 | Hepatotoxicity (steatosis) [3]: 0 | Hepatotoxicity (granulomatous hepatitis) [4]: 0 | Hepatotoxicity (choleostasis) [5]: 1 | Hepatotoxicity (association with vascular disease) [6]: 0 | Hepatotoxicity (mechanism) [7]: Dose-dependant | Hepatotoxicity (cytolytic) [8]: 1 | Hepatotoxicity (cirrhosis) [9]: 0 | Hepatotoxicity (benign tumour) [10]: 0 | Hepatotoxicity (acute) [11]: 1 | Hepatotoxicity (acute) [12]: 10.5% | Hepatotoxicity (chronic liver disease) [13]: 0 | Hepatotoxicity (moderate) [14]: 36.8% | Hepatotoxicity (moderate) [15]: 2

CS(=O)(=O)c1ccc([C@@H](O)[C@@H](CO)NC(=O)C(Cl)Cl)cc1 [THIAMPHENICOL]
Hepatotoxicity (severe hepatitis) [1]: 0 | Hepatotoxicity (malignant tumour) [2]: 0 | Hepatotoxicity (steatosis) [3]: 0 | Hepatotoxicity (granulomatous hepatitis) [4]: 0 | Hepatotoxicity (choleostasis) [5]: 0 | Hepatotoxicity (association with vascular disease) [6]: 0 | Hepatotoxicity (mechanism) [7]: Allergic | Hepatotoxicity (cytolytic) [8]: 0 | Hepatotoxicity (cirrhosis) [9]: 0 | Hepatotoxicity (benign tumour) [10]: 0 | Hepatotoxicity (acute) [11]: 1 | Hepatotoxicity (acute) [12]: 0% | Hepatotoxicity (chronic liver disease) [13]: 0 | Hepatotoxicity (moderate) [14]: 0% | Hepatotoxicity (moderate) [15]: 0

O=C(Cn1c(=O)sc2ccc(Cl)cc21)N1CCN(CCO)CC1 [TIARAMIDE]
Hepatotoxicity (severe hepatitis) [1]: 0 | Hepatotoxicity (malignant tumour) [2]: 0 | Hepatotoxicity (steatosis) [3]: 0 | Hepatotoxicity (granulomatous hepatitis) [4]: 0 | Hepatotoxicity (choleostasis) [5]: 1 | Hepatotoxicity (association with vascular disease) [6]: 0 | Hepatotoxicity (mechanism) [7]: Allergic | Hepatotoxicity (cytolytic) [8]: 1 | Hepatotoxicity (cirrhosis) [9]: 0 | Hepatotoxicity (benign tumour) [10]: 0 | Hepatotoxicity (acute) [11]: 1 | Hepatotoxicity (acute) [12]: 0% | Hepatotoxicity (chronic liver disease) [13]: 0 | Hepatotoxicity (moderate) [14]: 0% | Hepatotoxicity (moderate) [15]: 0

CCOC(=O)c1c(N)sc2c1CCN(Cc1ccccc1)C2 [TINORIDINE]
Hepatotoxicity (severe hepatitis) [1]: 0 | Hepatotoxicity (malignant tumour) [2]: 0 | Hepatotoxicity (steatosis) [3]: 0 | Hepatotoxicity (granulomatous hepatitis) [4]: 0 | Hepatotoxicity (choleostasis) [5]: 0 | Hepatotoxicity (association with vascular disease) [6]: 0 | Hepatotoxicity (mechanism) [7]: Allergic | Hepatotoxicity (cytolytic) [8]: 0 | Hepatotoxicity (cirrhosis) [9]: 0 | Hepatotoxicity (benign tumour) [10]: 0 | Hepatotoxicity (acute) [11]: 1 | Hepatotoxicity (acute) [12]: 0% | Hepatotoxicity (chronic liver disease) [13]: 0 | Hepatotoxicity (moderate) [14]: 0% | Hepatotoxicity (moderate) [15]: 1

O[C@H]1[C@H]2[C@H](O)CCCN2C[C@H]1O [TRIDOLGOSIR]
Hepatotoxicity (severe hepatitis) [1]: 0 | Hepatotoxicity (malignant tumour) [2]: 0 | Hepatotoxicity (steatosis) [3]: 0 | Hepatotoxicity (granulomatous hepatitis) [4]: 0 | Hepatotoxicity (choleostasis) [5]: 0 | Hepatotoxicity (association with vascular disease) [6]: 0 | Hepatotoxicity (mechanism) [7]: Dose-dependant | Hepatotoxicity (cytolytic) [8]: 0 | Hepatotoxicity (cirrhosis) [9]: 0 | Hepatotoxicity (benign tumour) [10]: 0 | Hepatotoxicity (acute) [11]: 1 | Hepatotoxicity (acute) [12]: 10.5% | Hepatotoxicity (chronic liver disease) [13]: 0 | Hepatotoxicity (moderate) [14]: 52.6% | Hepatotoxicity (moderate) [15]: 2
